The values below come from patent US8513232B2, “Substituted spirocyclic piperidine derivatives as histamine-3 (H3) receptor ligands” (Cephalon, Inc., priority 2008, dated 2013).

Read-outs that look alike come from different tables or passages of the source.

The target of one data set is T1, human H3 receptor (Homo sapiens, UniProt Q9Y5N1).
T1 construct: expressed in transfected cells
In words: Human H3 radioligand binding ([3H]-N-alpha-methylhistamine, SPA). The procedure, abridged: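 SPA competition binding on membranes from CHO cells stably expressing human H3 receptor (10 μg protein/well) with ~1 nM [3H]-N-alpha-methylhistamine and compound at 0.01 nM-30 μM. Incubation 4 h at room temperature in 50 mM Tris-HCl pH 7.4, 5 mM MgCl2, 0.1% BSA; non-specific binding defined with 10 μM clobenpropit.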

The target of data set [1] is T2, rat histamine H3 receptor (Rattus norvegicus, UniProt Q9QYN8).
T2 construct: encoding the entire 445-amino-acid rat histamine H3 receptor; expressed in transfected cells; membrane preparation
In words: Rat H3 radioligand binding ([3H]-N-alpha-methylhistamine, SPA). The procedure, abridged: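 Membranes from CHO-A3 cells stably expressing full-length rat H3 receptor (10 μg protein/well) incubated 4 h at room temperature, protected from light, with ~1 nM [3H]-N-alpha-methylhistamine and compound (0.01 nM-30 μM) in 50 mM Tris HCl pH 7.4, 5 mM MgCl2, 0.1% BSA. Binding read by SPA; 10 μM clobenpropit defined non-specific binding.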

The mark [2] stands for this setting: human H3 binding, Table D, read-out: Human H3 Ki.
The mark [3] stands for this setting: rat H3 binding, Table D, read-out: Rat H3 Ki.
Where [4] appears, read: Table C, human H3 binding, read-out: Human H3 Ki.
Setting [5] is: Table C, rat H3 binding, read-out: Rat H3 Ki.
Where [6] appears, read: Table A, human H3 binding, read-out: Human Ki.
Where [7] appears, read: Table A, rat H3 binding, read-out: Rat Ki.
Setting [8] is: Human H3 binding, Table B, Examples 136-362, read-out: hum H3 binding Ki.
[9] abbreviates: Rat H3 binding, Table B, Examples 136-362, read-out: rat H3 binding Ki.

T2 sequence (Q9QYN8 whole entry): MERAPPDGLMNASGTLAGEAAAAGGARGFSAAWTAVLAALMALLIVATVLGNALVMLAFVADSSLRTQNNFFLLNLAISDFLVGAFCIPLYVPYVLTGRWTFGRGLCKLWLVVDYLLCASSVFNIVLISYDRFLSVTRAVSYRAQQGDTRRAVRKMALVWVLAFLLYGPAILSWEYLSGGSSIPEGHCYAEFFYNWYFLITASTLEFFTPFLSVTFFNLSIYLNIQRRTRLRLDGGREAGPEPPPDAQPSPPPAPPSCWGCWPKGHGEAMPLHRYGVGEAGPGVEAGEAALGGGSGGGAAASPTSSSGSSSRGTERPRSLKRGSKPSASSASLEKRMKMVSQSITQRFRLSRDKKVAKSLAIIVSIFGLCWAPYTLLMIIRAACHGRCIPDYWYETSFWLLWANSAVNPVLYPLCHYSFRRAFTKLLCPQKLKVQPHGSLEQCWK
T1 sequence (Q9Y5N1 whole entry): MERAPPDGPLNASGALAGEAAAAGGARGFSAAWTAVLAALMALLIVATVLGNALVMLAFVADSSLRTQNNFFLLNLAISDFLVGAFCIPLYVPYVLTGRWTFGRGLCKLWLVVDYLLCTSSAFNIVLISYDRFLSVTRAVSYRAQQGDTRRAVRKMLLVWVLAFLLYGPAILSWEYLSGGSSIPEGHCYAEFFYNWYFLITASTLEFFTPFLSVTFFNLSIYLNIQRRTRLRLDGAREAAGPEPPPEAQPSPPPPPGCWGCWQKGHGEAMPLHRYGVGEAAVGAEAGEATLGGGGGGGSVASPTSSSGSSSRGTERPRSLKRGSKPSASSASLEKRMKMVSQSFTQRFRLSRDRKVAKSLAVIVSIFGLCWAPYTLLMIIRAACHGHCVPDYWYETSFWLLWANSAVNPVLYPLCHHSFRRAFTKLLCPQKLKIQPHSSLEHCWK

In turn, `Cc1ccc(-c2ccc3c(c2)COC2(CCN(C4CCC4)CC2)O3)c(C)n1` [Example 748] displayed a melting point of 190 to 192 °C. Further, the Ki at human H3 receptor (setting [2]) was less than 200 nM. Further, the Ki in data set [1] (setting [3]) was less than 200 nM.

In turn, `OC1CC=C(c2ccc3c(c2)COC2(CCN(C4CCC4)CC2)O3)CC1` (stereo not drawn) [Example 525] came in with a melting point of 128 to 132 °C. For the same compound, on human H3 receptor (read-out: Human H3 Ki), the Ki is less than 200 nM. Further, the Ki in data set [1] (read-out: Rat H3 kI) is less than 200 nM.

Regarding `c1cc2c(cc1N1CCCCC1)CCC1(CCN(C3CCC3)CC1)O2` [Example 393], the melting point is > 280 °C (dec.). Further, the Ki on human H3 receptor (setting [4]) is less than 200 nM. Also, the Ki in data set [1] (setting [5]) was less than 200 nM.

On to `O=C1CCN1c1ccc2c(c1)CCC1(CCN(C3CCC3)CC1)O2` [Example 120], for which the melting point fell in the range of 195 to 197 °C. At human H3 receptor (setting [6]), the Ki was less than 200 nM. Further, in data set [1] (setting [7]), the Ki is less than 200 nM.

With `CNC(=O)c1ccc(Oc2ccc3c(c2)CCC2(CCN(C4CCC4)CC2)O3)nc1` [Example 401], the melting point lay in the range of 245 to 247 °C. The Ki at human H3 receptor (setting [4]) is less than 200 nM. Also, the Ki in data set [1] (setting [5]) was less than 200 nM.

`OC(c1ccc(F)cc1)c1ccc2c(c1)COC1(CCN(C3CCC3)CC1)O2` (stereo not drawn) [Example 513] yielded a melting point of 58 to 62 °C. Besides, the inhibition constant (Ki) on human H3 receptor (read-out: Human H3 Ki) is less than 200 nM. In data set [1] (read-out: Rat H3 kI), the Ki is less than 200 nM.

As to `Cc1cnc(-c2ccc3c(c2)COC2(CCN(C4CCC4)CC2)O3)c(C)n1` [Example 731], the melting point fell in the range of 224 to 225 °C. Also, on human H3 receptor (setting [2]), the Ki was less than 200 nM. Further, the Ki in data set [1] (setting [3]) is less than 200 nM.

Turning to `COCC1CCN(c2ccc3c(c2)COC2(CCN(C4CCC4)CC2)O3)CC1` [Example 632], the melting point lay in the range of 92.3 to 94.2 °C. Besides, on human H3 receptor (setting [2]), the Ki was less than 200 nM. In addition, the Ki in data set [1] (setting [3]) was less than 200 nM.

`O=c1cc(-c2ccc3c(c2)COC2(CCN(C4CCC4)CC2)O3)c(F)c[nH]1` [Example 766] showed a melting point of 254 to 255 °C. The Ki at human H3 receptor (setting [2]) was less than 200 nM. The Ki in data set [1] (setting [3]) is less than 200 nM.

`O=c1cc(-c2ccc3c(c2)COC2(CCN(C4CCC4)CC2)O3)ccn1C(F)F` [Example 775]: the melting point is 175 to 177 °C. In addition, on human H3 receptor (setting [2]), the Ki was less than 200 nM. Also, in data set [1] (setting [3]), the inhibition constant (Ki) is less than 200 nM.

Compound `O=c1oc2ccccc2n1-c1ccc2c(n1)COC1(CCN(C3CCC3)CC1)O2` [Example 161] yielded a melting point of 67 to 70 °C. Besides, the Ki at human H3 receptor (setting [8]) was less than 200 nM. The Ki in data set [1] (setting [9]) fell in the range of 200 to 1000 nM.

As for `c1ccc(CNc2ccc3c(c2)COC2(CCN(C4CCC4)CC2)O3)cc1` [Example 305], the melting point lay in the range of 85 to 87 °C. Further, at human H3 receptor (setting [8]), the Ki is less than 200 nM. The Ki in data set [1] (setting [9]) is less than 200 nM.

Turning to `O=C(c1ccc(-c2ccc3c(c2)COC2(CCN(C4CCC4)CC2)O3)cc1)N1CCC(O)CC1` [Example 258], the melting point is 100.4 to 102.2 °C. For the same compound, the Ki on human H3 receptor (setting [8]) was less than 200 nM. For the same compound, the Ki in data set [1] (setting [9]) was less than 200 nM.

As to `Cn1cc(C(=O)Nc2ccc3c(c2)COC2(CCN(C4CCC4)CC2)O3)cn1` [Example 227], the melting point lay in the range of 227 to 228 °C. Besides, the Ki on human H3 receptor (setting [8]) is less than 200 nM. Further, in data set [1] (setting [9]), the Ki lay in the range of 200 to 1000 nM.

`c1cc2c(cc1C1CCNCC1)CCC1(CCN(C3CCC3)CC1)O2` [Example 452] returned a melting point of 88 to 90 °C. The Ki on human H3 receptor (read-out: Human H3 Ki) was less than 200 nM. Besides, in data set [1] (read-out: Rat H3 kI), the Ki is less than 200 nM.

In turn, `COCCNC(=O)N1CCN(c2ccc3c(c2)COC2(CCN(C4CCC4)CC2)O3)CC1` [Example 275] yielded a melting point of 66.8 to 68.4 °C. On human H3 receptor (setting [8]), the Ki is less than 200 nM. In data set [1] (setting [9]), the Ki was less than 200 nM.

`Fc1ncccc1-c1ccc2c(c1)COC1(CCN(C3CCC3)CC1)O2` [Example 47] registered a melting point of 95 to 100 °C. At human H3 receptor (setting [6]), the Ki was less than 200 nM. Also, in data set [1] (setting [7]), the Ki is less than 200 nM.

The compound `O[C@@H]1CCN(c2ccc3c(c2)COC2(CCN(C4CCC4)CC2)O3)C1` [Example 347] had a melting point of 70.2 to 72.2 °C. For the same compound, the Ki on human H3 receptor (setting [8]) is less than 200 nM. For the same compound, the Ki in data set [1] (setting [9]) is less than 200 nM.

For `COc1cc(C(=O)NC2CCOCC2)ccc1-c1ccc2c(c1)COC1(CCN(C3CCC3)CC1)O2` [Example 688], the melting point was 100 to 102 °C. In addition, the Ki at human H3 receptor (setting [2]) was less than 200 nM. Moreover, the Ki in data set [1] (setting [3]) was less than 200 nM.

The compound `CCOC1CCN(c2ccc3c(c2)CCC2(CCN(C4CCC4)CC2)O3)CC1` [Example 391] came in with a melting point of 285 to 290 °C. Moreover, the Ki at human H3 receptor (setting [4]) was less than 200 nM. Further, the Ki in data set [1] (setting [5]) is less than 200 nM.

In turn, `Cc1noc(C)c1C(=O)N1CCN(c2ccc3c(c2)COC2(CCN(C4CCC4)CC2)O3)C(=O)C1` [Example 738] had a melting point of 103 to 106 °C. Also, the Ki on human H3 receptor (setting [2]) is less than 200 nM. Besides, the Ki in data set [1] (setting [3]) is less than 200 nM.

In turn, `CNC(=O)c1c(F)cc(-c2ccc3c(c2)COC2(CCN(C4CCC4)CC2)O3)cc1F` [Example 220] displayed a melting point of 212.6 to 214.2 °C. Moreover, the Ki at human H3 receptor (setting [8]) was less than 200 nM. The Ki in data set [1] (setting [9]) is less than 200 nM.

`Clc1ccc(N2CCN(c3ccc4c(c3)CCC3(CCN(C5CCC5)CC3)O4)CC2)nn1` [Example 389] had a melting point of 229 to 231 °C. Also, the Ki on human H3 receptor (setting [4]) is less than 200 nM. Besides, in data set [1] (setting [5]), the Ki was less than 200 nM.

The compound `[O-][S+]1CC=C(c2ccc3c(c2)COC2(CC[N+]([O-])(C4CCC4)CC2)O3)CC1` (stereo not drawn) [Example 472] displayed a melting point of 130 to 133 °C. The Ki on human H3 receptor (read-out: Human H3 Ki) was less than 200 nM. The Ki in data set [1] (read-out: Rat H3 kI) was less than 200 nM.

On to `O=C(N1CCCC1)N1CCN(c2ccc3c(c2)CCC2(CCN(C4CCC4)CC2)O3)CC1` [Example 388], for which the melting point lay in the range of 165 to 167 °C. In addition, the Ki on human H3 receptor (setting [4]) was less than 200 nM. Moreover, the Ki in data set [1] (setting [5]) is less than 200 nM.

Regarding `CCOC(=O)C1CC=C(c2ccc3c(c2)COC2(CCN(C4CCC4)CC2)O3)CC1` (stereo not drawn) [Example 487], the melting point was 263 to 265 °C. In addition, the Ki on human H3 receptor (read-out: Human H3 Ki) is less than 200 nM. For the same compound, the Ki in data set [1] (read-out: Rat H3 kI) was less than 200 nM.

Compound `CNC(=O)c1ccc(-c2cc3c(cc2Cl)OC2(CCN(C4CCC4)CC2)OC3)cc1F` [Example 272] registered a melting point of 70 to 72 °C. For the same compound, the Ki at human H3 receptor (setting [8]) was less than 200 nM. The Ki in data set [1] (setting [9]) is less than 200 nM.

`Cc1n[nH]c(C)c1-c1ccc2c(c1)CCC1(CCN(C3CCC3)CC1)O2` [Example 167] came in with a melting point of 86 to 88 °C. Further, the Ki on human H3 receptor (setting [8]) was less than 200 nM. Moreover, the Ki in data set [1] (setting [9]) is less than 200 nM.

In turn, `O=S1(=O)CCC(c2ccc3c(c2)COC2(CCN(C4CCC4)CC2)O3)CC1` [Example 489] showed a melting point of 210 to 211 °C. For the same compound, the Ki on human H3 receptor (read-out: Human H3 Ki) was less than 200 nM. Moreover, the Ki in data set [1] (read-out: Rat H3 kI) is less than 200 nM.
